Experiment [1] deals with Recombinant Human NF-Kappab-Inducing Kinase (NIK/MAP3K14) (Homo sapiens, UniProt Q99558). The experiment can be described thus: Inhibition of auto-phosphorylation of recombinant human NIK/MAP3K14 (AlphaScreen). Conditions: NIK/MAP3K14 auto-phosphorylation, 5 microM ATP, 1 nM enzyme, 2 h at 25° C.; average of values; read-out: Assay 1 IC50. The class given is biochemical. The gist of the method: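 GST-tagged NIK (1 nM) auto-phosphorylation with 5 µM ATP in Tris pH 7.5/MgCl2 buffer, 0.7% DMSO, 2 h at 25 °C. Phospho-IKK Ser176/180 antibody detected by AlphaScreen beads. Signal normalized to full-enzyme and no-ATP controls; IC50 from sigmoidal fit of % inhibition vs log concentration.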

The subject of experiment [2] is p-IKKα levels in L363 (NIK translocated multiple myeloma) cells. The experiment can be described thus: Effect of compounds on p-IKKα levels in L363 cells (AlphaLISA SureFire Ultra). It counts as cell-based. To be noted: Homo sapiens, L-363; L363 cells, BAFF stimulated, MG132, 6 h; average of values; read-out: Assay 2 IC50. The gist of the method: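 L363 myeloma cells were BAFF-stimulated (250 ng/ml) overnight in DMEM/0.5% BSA, then exposed 6 h at 37° C to compound (11-point 1:3 series, 0.3% DMSO) with BAFF plus 10 uM MG132. p-IKKα (Ser 176/180) was read by AlphaLISA SureFire Ultra in lysates. IC50 came from sigmoidal fits normalized to stimulated and unstimulated controls.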

Bounds are passed on as bounds.

Sequence of Recombinant Human NF-Kappab-Inducing Kinase (NIK/MAP3K14) (Q99558 whole entry): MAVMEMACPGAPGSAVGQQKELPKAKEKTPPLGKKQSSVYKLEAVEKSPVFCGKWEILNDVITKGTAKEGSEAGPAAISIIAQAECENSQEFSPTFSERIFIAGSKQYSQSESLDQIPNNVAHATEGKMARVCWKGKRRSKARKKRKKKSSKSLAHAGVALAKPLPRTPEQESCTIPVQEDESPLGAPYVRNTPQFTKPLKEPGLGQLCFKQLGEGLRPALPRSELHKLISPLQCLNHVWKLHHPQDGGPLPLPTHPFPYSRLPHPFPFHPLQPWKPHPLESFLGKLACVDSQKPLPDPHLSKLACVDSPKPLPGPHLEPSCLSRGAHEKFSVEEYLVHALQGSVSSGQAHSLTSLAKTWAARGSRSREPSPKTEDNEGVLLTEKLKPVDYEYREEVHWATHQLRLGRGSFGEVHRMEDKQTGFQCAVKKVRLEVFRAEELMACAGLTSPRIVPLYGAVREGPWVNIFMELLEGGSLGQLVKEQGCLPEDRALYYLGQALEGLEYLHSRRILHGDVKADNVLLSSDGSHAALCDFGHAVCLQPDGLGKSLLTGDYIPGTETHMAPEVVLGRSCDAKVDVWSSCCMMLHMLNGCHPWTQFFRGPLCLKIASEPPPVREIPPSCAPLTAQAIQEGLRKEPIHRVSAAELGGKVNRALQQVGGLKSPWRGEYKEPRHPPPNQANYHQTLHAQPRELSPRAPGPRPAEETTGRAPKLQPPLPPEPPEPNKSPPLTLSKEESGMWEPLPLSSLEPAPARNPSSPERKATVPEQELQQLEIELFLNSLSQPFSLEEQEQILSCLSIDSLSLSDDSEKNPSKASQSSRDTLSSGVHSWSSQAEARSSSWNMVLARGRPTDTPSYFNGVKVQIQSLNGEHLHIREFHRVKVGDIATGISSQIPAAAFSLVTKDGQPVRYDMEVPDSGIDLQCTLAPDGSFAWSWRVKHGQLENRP

Turning to `COc1cc(-c2cccc(-c3cc([C@]4(O)CCN(C)C4=O)on3)c2)nc2[nH]ncc12` [Example 224, (R)-3-Hydroxy-3-(3-(3-(4-methoxy-1H-pyrazolo[3,4-b]pyridin-6-yl)phenyl)isoxazol-5-yl)-1-methylpyrrolidin-2-one], the IC50 in experiment [1] is 100 to 500 nM; in experiment [2], over 501 nM.
The corresponding values for `CN1CC[C@@](O)(c2cc(-c3cccc(-c4cc(C(F)(F)F)c5cn[nH]c5n4)c3)no2)C1=O` [Example 225, (R)-3-Hydroxy-1-methyl-3-(3-(3-(4-(trifluoromethyl)-1H-pyrazolo[3,4-b]pyridin-6-yl)phenyl)isoxazol-5-yl)pyrrolidin-2-one] are 100 to 500 nM and over 501 nM.
In the same order, the values of `CN1CC[C@@](O)(c2cc(-c3cccc(-c4ncc5cn[nH]c5n4)c3)no2)C1=O` [Example 226, (R)-3-(3-(3-(1H-Pyrazolo[3,4-d]pyrimidin-6-yl)phenyl)isoxazol-5-yl)-3-hydroxy-1-methylpyrrolidin-2-one] are over 501 nM and over 501 nM.
The corresponding values for `CN1CC[C@@](O)(c2cc(-c3cccc(-c4ncc5cnn(C)c5n4)c3)no2)C1=O` [Example 227, (R)-3-Hydroxy-1-methyl-3-(3-(3-(1-methyl-1H-pyrazolo[3,4-d]pyrimidin-6-yl)phenyl)isoxazol-5-yl)pyrrolidin-2-one] are 100 to 500 nM and over 501 nM.
In the case of `CN1CC[C@@](O)(c2cc(-c3cccc(-c4ccc5[nH]ncc5n4)c3)no2)C1=O` [Example 228, (R)-3-(3-(3-(1H-Pyrazolo[4,3-b]pyridin-5-yl)phenyl)isoxazol-5-yl)-3-hydroxy-1-methylpyrrolidin-2-one], the figures for the 50% inhibitory concentration (IC50) in experiment [1] and in experiment [2] were 100 to 500 nM and over 501 nM, respectively.
In the same order, the values of `CN1CC[C@@](O)(c2cc(-c3cccc(-c4ccc5c(cnn5C)n4)c3)no2)C1=O` [Example 229, (R)-3-Hydroxy-1-methyl-3-(3-(3-(1-methyl-1H-pyrazolo[4,3-b]pyridin-5-yl)phenyl)isoxazol-5-yl)pyrrolidin-2-one] are over 501 nM and over 501 nM.
The corresponding values for `COc1cc(-c2cccc(-c3cc([C@]4(O)CCN(C)C4=O)on3)c2)nc2c1c(C)nn2C` [Example 230, (R)-3-Hydroxy-3-(3-(3-(4-methoxy-1,3-dimethyl-1H-pyrazolo[3,4-b]pyridin-6-yl)phenyl)isoxazol-5-yl)-1-methylpyrrolidin-2-one] are 100 to 500 nM and over 501 nM.
The corresponding values for `CN1CC[C@@](O)(c2cc(-c3cccc(-c4nc(C(N)=O)c(CN5CCCC5)s4)c3)no2)C1=O` [Example 231, (R)-2-(3-(5-(3-Hydroxy-1-methyl-2-oxopyrrolidin-3-yl)isoxazol-3-yl)phenyl)-5-(pyrrolidin-1-ylmethyl)thiazole-4-carboxamide] are under 100 nM and over 501 nM.
With `CN1CC[C@@](O)(c2cc(-c3cccc(-c4nc(C(N)=O)c5n4CCN(CCC(F)(F)F)C5)c3)no2)C1=O` [Example 232, (R)-3-(3-(5-(3-Hydroxy-1-methyl-2-oxopyrrolidin-3-yl)isoxazol-3-yl)phenyl)-7-(3,3,3-trifluoropropyl)-5,6,7,8-tetrahydroimidazo[1,5-a]pyrazine-1-carboxamide], the IC50 in experiment [1] and in experiment [2] was over 501 nM in each case.
With `CC(C)N1CCn2c(-c3cccc(-c4cc([C@]5(O)CCN(C)C5=O)on4)c3)nc(C(N)=O)c2C1` [Example 233, (R)-3-(3-(5-(3-Hydroxy-1-methyl-2-oxopyrrolidin-3-yl)isoxazol-3-yl)phenyl)-7-isopropyl-5,6,7,8-tetrahydroimidazo[1,5-a]pyrazine-1-carboxamide], the IC50 in experiment [1] and in experiment [2] was over 501 nM throughout.
Turning to `CN1CC[C@@](O)(c2cc(-c3cccc(-c4nc(C(N)=O)c5n4CCN(Cc4ccccc4)C5)c3)no2)C1=O` [Example 234, (R)-7-Benzyl-3-(3-(5-(3-hydroxy-1-methyl-2-oxopyrrolidin-3-yl)isoxazol-3-yl)phenyl)-5,6,7,8-tetrahydroimidazo[1,5-a]pyrazine-1-carboxamide], the IC50 in experiment [1] and in experiment [2] was over 501 nM each time.
With `Cc1ncc(C#N)cc1Nc1sc(-c2cccc(-c3cc([C@]4(O)CCN(C)C4=O)on3)c2)nc1C(N)=O` [Example 235, (R)-5-((5-Cyano-2-methylpyridin-3-yl)amino)-2-(3-(5-(3-hydroxy-1-methyl-2-oxopyrrolidin-3-yl)isoxazol-3-yl)phenyl)thiazole-4-carboxamide], the IC50 in experiment [1] and in experiment [2] was under 100 nM throughout.
Regarding `CN1CC[C@@](O)(c2cc(-c3cccc(-c4nc(C(N)=O)c(Nc5ccn(C)n5)s4)c3)no2)C1=O` [Example 236, (R)-2-(3-(5-(3-Hydroxy-1-methyl-2-oxopyrrolidin-3-yl)isoxazol-3-yl)phenyl)-5-((1-methyl-1H-pyrazol-3-yl)amino)thiazole-4-carboxamide], the IC50 in experiment [1] and in experiment [2] was under 100 nM each time.
Regarding `CN1CC[C@@](O)(c2cc(-c3cccc(-c4nc(C(N)=O)c(CN)s4)c3)no2)C1=O` [Example 237, (R)-5-(Aminomethyl)-2-(3-(5-(3-hydroxy-1-methyl-2-oxopyrrolidin-3-yl)isoxazol-3-yl)phenyl)thiazole-4-carboxamide], the IC50 in experiment [1] is under 100 nM; in experiment [2] it was over 501 nM.
Regarding `CN1CC[C@@](O)(c2cc(-c3cccc(-c4nc(C(N)=O)c(CNc5ccn(C)n5)s4)c3)no2)C1=O` [Example 238, (R)-2-(3-(5-(3-Hydroxy-1-methyl-2-oxopyrrolidin-3-yl)isoxazol-3-yl)phenyl)-5-(((1-methyl-1H-pyrazol-3-yl)amino)methyl)thiazole-4-carboxamide], the IC50 was under 100 nM in experiment [1] and 100 to 500 nM in experiment [2].
In the same order, the values of `Cc1cn(C)nc1Nc1sc(-c2cccc(-c3cc([C@]4(O)CCN(C)C4=O)on3)c2)nc1C(N)=O` [Example 239, (R)-5-((1,4-Dimethyl-1H-pyrazol-3-yl)amino)-2-(3-(5-(3-hydroxy-1-methyl-2-oxopyrrolidin-3-yl)isoxazol-3-yl)phenyl)thiazole-4-carboxamide] are under 100 nM and under 100 nM.
In the same order, the values of `CN1CC[C@@](O)(c2cc(-c3ccc(F)c(-c4cc(C(F)(F)F)cc(C(N)=O)n4)c3)no2)C1=O` [Example 240, (R)-6-(2-Fluoro-5-(5-(3-hydroxy-1-methyl-2-oxopyrrolidin-3-yl)isoxazol-3-yl)phenyl)-4-(trifluoromethyl)picolinamide] are under 100 nM and over 501 nM.
In the same order, the values of `CN1CC[C@@](O)(c2cc(-c3ccnc(-c4cc(C5CC5)c(N)c(C(N)=O)n4)c3)no2)C1=O` [Example 241, (R)-5-Amino-4-cyclopropyl-4′-(5-(3-hydroxy-1-methyl-2-oxopyrrolidin-3-yl)isoxazol-3-yl)-[2,2′-bipyridine]-6-carboxamide] are under 100 nM and under 100 nM.
In the case of `CN1CC[C@@](O)(c2cc(-c3cccc(-c4cc(C5CC5)c(N)c(C(N)=O)n4)c3F)no2)C1=O` [Example 242, (R)-3-Amino-4-cyclopropyl-6-(2-fluoro-3-(5-(3-hydroxy-1-methyl-2-oxopyrrolidin-3-yl)isoxazol-3-yl)phenyl)picolinamide], the half-maximal inhibitory concentration (IC50) in experiment [1] and in experiment [2] was under 100 nM each time.
On to `CN1CC[C@@](O)(c2cc(-c3cc(F)cc(-c4cc(C5CC5)c(N)c(C(N)=O)n4)c3)no2)C1=O` [Example 243, (R)-3-Amino-4-cyclopropyl-6-(3-fluoro-5-(5-(3-hydroxy-1-methyl-2-oxopyrrolidin-3-yl)isoxazol-3-yl)phenyl)picolinamide], for which the IC50 in experiment [1] and in experiment [2] was under 100 nM in each case.
As to `CN1CC[C@@](O)(c2cc(-c3cc(-c4cc(C5CC5)c(N)c(C(N)=O)n4)ccc3F)no2)C1=O` [Example 244, (R)-3-Amino-4-cyclopropyl-6-(4-fluoro-3-(5-(3-hydroxy-1-methyl-2-oxopyrrolidin-3-yl)isoxazol-3-yl)phenyl)picolinamide], the IC50 is under 100 nM in experiment [1] and over 501 nM in experiment [2].
In the same order, the values of `CN1CC[C@@](O)(c2cc(-c3ccc(F)c(-c4cc(C5CC5)c(N)c(C(N)=O)n4)c3)no2)C1=O` [Example 245, (R)-3-Amino-4-cyclopropyl-6-(2-fluoro-5-(5-(3-hydroxy-1-methyl-2-oxopyrrolidin-3-yl)isoxazol-3-yl)phenyl)picolinamide] are under 100 nM and under 100 nM.

The values above are taken from patent publication US20250282785A1, “PYRROLIDINONE DERIVATIVES AS INHIBITORS OF NF KAPPA B INDUCING KINASE” (priority 2022, published 2025).
